The results in this text go back to patent US11447504B2, “Macrocyclic chlorine substituted indole derivatives” (Bayer Aktiengesellschaft, priority 2017, dated 2022).

Structures can show the parent of a compound that is named as a salt. Where two headings read alike, the source gives them in different places.

The test system of series [1] is SUDHL5. Kind of series: Induction of cytotoxicity (Assay 6), SUDHL5.
Series [2] relates to SUDHL5. Kind of series: Antiproliferation assay 7, SUDHL5. In kind it is cell-based. The settings on record: SUDHL5 cells, CellTiter-Glo, read-out: Antiproli SUDHL5 IC50 (median). On the procedure:
(§1) Assessment of the Anti-Proliferative Effect of Compounds in Different Cell Lines
(§2) The impact of compounds on the proliferation of different cell lines was assessed using the CellTiter-Glo® Luminescent Cell Viability reagent from Promega (G7573).
(§3) In parallel, cells were plated in a reference (day 0) plate for time zero determination.
(§4) Rim wells were excluded. The cells were incubated for 72 hours in a humidified incubator at 37° C. The day 0 plate was measured by adding 30 μL/well of CTG solution (CellTiter-Glo® Luminescent Cell Viability reagent, Promega G7573) to time zero wells in the reference plate followed by a 10 minutes incubation and luminescence reading at 0.1 ms. using the PHERAstar FS microplate reader (BMG Labtech).
(§5) After 72 hours incubation, the treated plates were measured in the same way as the day 0 plate mentioned above.
Background: ATP-based viability assays read luminescence as a measure of living cells.

Series [3] has as its system SUDHL5. Kind of series: Induction of caspase-3/7 activity (Assay 4), SUDHL5. In kind it is cell-based. The settings on record: SUDHL5 cells. On the procedure: (§6) Induction of Caspase-3/7 Activity Upon Treatment of Cells with Selected Compounds
The BH3-domain of MCL-1 sequesters pro-apoptotic proteins, thereby inhibiting apoptosis. In contrast, MCL-1 inhibitors are expected to antagonize this effect leading to an increase in apoptosis, which can be determined by measuring the activity of caspase-3/7.
(§7) The activity of caspase-3/7 was determined in DLBCL (Diffuse large B-cell lymphoma) cell lines (SUDHL5 and SUDHL10) upon treatment with different compounds, using the Caspase-Glo®3/7 reagent from Promega (G8092).
(§8) Rim wells were excluded. The cells were incubated for 3 hours in a humidified incubator at 37° C.
(§9) For the evaluation of the results, the background measured with “medium-only” was subtracted from all other values.

The next series relates to AMO-1. Kind of series: Antiproliferation assay 7, AMO-1. Type of series: cell-based. The following applies: AMO-1 cells, CellTiter-Glo, read-out: Antiproli AMO-1 IC50 median. The procedure:
as §1, §2, §3, §4, §5

Another series relates to HMC-1-8. Kind of series: Antiproliferation assay 7, HMC-1-8. Type of series: cell-based. The settings on record: HMC-1-8 cells, CellTiter-Glo, read-out: Antiproli HMC-1-8 IC50 median. The procedure: as §1, §2, §3, §4, §5
The test system of series [4] is SUDHL10. Kind of series: Induction of caspase-3/7 activity (Assay 4), SUDHL10. In kind it is cell-based. The following applies: SUDHL10 cells. On the procedure:
as §6
In contrast, MCL-1 inhibitors are expected to antagonize this effect leading to an increase in apoptosis, which can be determined by measuring the activity of caspase-3/7.
as §7, §8, §9

Series [5] relates to SUDHL10. Kind of series: Induction of cytotoxicity (Assay 6), SUDHL10.
The subject of another series is MV-4-11. Kind of series: Antiproliferation assay 7, MV-4-11. The settings on record: MV-4-11 cells, 72 hours, CellTiter-Glo; read-out: Antiproli MV-4-11 IC50 median. Type of series: cell-based. On the procedure:
as §1, §2, §3, §4, §5

Setting [6] is: Homo sapiens, SU-DHL-5, 5 h, read-out: Cytotox SUDHL5 IC50 (median), SUDHL5 cells, 5 hours, CellTiter-Glo.
[7] abbreviates: Homo sapiens, SU-DHL-5, 3 h, Caspase-Glo 3/7, read-out: Caspase SUDHL5 EC50 (median).
The mark [8] stands for this setting: Homo sapiens, SU-DHL10, 3 h, Caspase-Glo 3/7, read-out: Caspase SUDHL10 EC50 (median).
Setting [9] is: Homo sapiens, SU-DHL10, 5 h, read-out: Cytotox SUDHL10 IC50 (median), SUDHL10 cells, 5 hours, CellTiter-Glo.
[10] abbreviates: read-out: Cytotox SUDHL5 IC50 (median), SUDHL5 cells, 5 hours, CellTiter-Glo.
Where [11] appears, read: 3 hours, Caspase-Glo 3/7, read-out: Caspase SUDHL5 EC50 (median).
Where [12] appears, read: 3 hours, Caspase-Glo 3/7, read-out: Caspase SUDHL10 EC50 (median).
Where [13] appears, read: read-out: Cytotox SUDHL10 IC50 (median), SUDHL10 cells, 5 hours, CellTiter-Glo.

Turning to `CCc1c2c(nn1C)CCCCCCn1c(C(=O)O)c(CCCOc3cccc4cc(F)ccc34)c3ccc(Cl)c-2c31` (racemic) [Example 54, (rac)-4-chloro-3-ethyl-7-{3-[(6-fluoronaphthalen-1-yl)oxy]propyl}-2-methyl-10,11,12,13,14,15-hexahydro-2H-pyrazolo[4′,3′:4,5]azacycloundecino[3,2,1-hi]indole-8-carboxylic Acid], the half-maximal inhibitory concentration (IC50) (usually the concentration needed to halve the response being measured) in the series with SUDHL5 [1] (setting [6]) worked out at 670 nM; in the series with SUDHL5 [2] (Homo sapiens, SU-DHL-5, 72 h), 430 nM; with AMO-1 (Homo sapiens, AMO1, 72 h), 1350 nM; with HMC-1-8 (72 h), 2210 nM; in the series on SUDHL10 [5] (setting [9]) it was 740 nM. The EC50 (commonly the concentration giving half of the maximal effect) worked out at 600 nM with SUDHL5 [3] (setting [7]) and 520 nM in the series on SUDHL10 [4] (setting [8]).

As to `Cc1c2c(nn1C)CN(CC(F)(F)F)CCCCn1c(C(=O)O)c(CCCOc3cccc4cc(F)ccc34)c3ccc(Cl)c-2c31` (racemic) [Example 58, (rac)-4-chloro-7-{3-[(6-fluoronaphthalen-1-yl)oxy]propyl}-2,3-dimethyl-14-(2,2,2-trifluoroethyl)-10,11,12,13,14,15-hexahydro-2H-pyrazolo[3′,4′:8,9][1,6]diazacycloundecino[10,11,1-hi]indole-8-carboxylic Acid], the half-inhibitory concentration (IC50) in the series with SUDHL5 [1] (setting [6]) was 340 nM; in the series on SUDHL5 [2] (Homo sapiens, SU-DHL-5, 72 h) it was 250 nM; in the series on AMO-1 (Homo sapiens, AMO1, 72 h), 683 nM; in the series with HMC-1-8 (72 h), 1720 nM; in the series with SUDHL10 [5] (setting [9]), 530 nM. Further, the results for the half-maximal effective concentration (EC50) in the series with SUDHL5 [3] (setting [7]) and in the series with SUDHL10 [4] (setting [8]) were 330 nM and 440 nM, respectively.

`CCc1c2c(nn1C)CN(CC(F)(F)F)CCCCn1c(C(=O)O)c(CCCOc3cccc4cc(F)ccc34)c3ccc(Cl)c-2c31` (racemic) [Example 61, (rac) 4-chloro-3-ethyl-7-{3-[(6-fluoronaphthalen-1-yl)oxy]propyl}-2-methyl-14-(2,2,2-trifluoroethyl)-10,11,12,13,14,15-hexahydro-2H-pyrazolo[3′,4′:8,9][1,6]diazacycloundecino[10,11,1-hi]indole-8-carboxylic Acid]: the 50% inhibitory concentration (IC50) with SUDHL5 [1] (setting [6]) turned out to be 540 nM; with AMO-1 (Homo sapiens, AMO1, 72 h) it was 1870 nM; in the series on HMC-1-8 (72 h), 7150 nM. Besides, the EC50 in the series with SUDHL5 [3] (setting [7]) worked out at 330 nM.

In the case of `Cc1c2c(nn1C)OCCCCCn1c(C(=O)O)c(CCCOc3cccc4cc(F)ccc34)c3ccc(Cl)c-2c31` (racemic) [Example 83, (rac)-4-chloro-7-{3-[(6-fluoronaphthalen-1-yl)oxy]propyl}-2,3-dimethyl-11,12,13,14-tetrahydro-2H,10H-pyrazolo[3′,4′:2,3][1,6]oxazacycloundecino[4,5,6-hi]indole-8-carboxylic Acid], the IC50 in the series with SUDHL5 [1] (setting [10]) is 660 nM; in the series with SUDHL5 [2] (72 hours) it was 380 nM; in the series on AMO-1 (72 hours), 730 nM; with HMC-1-8 (72 hours) it was 7900 nM; with SUDHL10 [5] (setting [13]), 1100 nM. The values for the EC50 with SUDHL5 [3] (setting [11]) and with SUDHL10 [4] (setting [12]) were 610 nM and 980 nM, respectively.

Regarding `CCc1c2c(nn1C)CCCCCCn1c(C(=O)O)c(CCCOc3cccc4ccccc34)c3ccc(Cl)c-2c31` (single isomer, unassigned; enantiomer 1) [Example 52, (+)-4-chloro-3-ethyl-2-methyl-7-{3-[(naphthalen-1-yl)oxy]propyl}-10,11,12,13,14,15-hexahydro-2H-pyrazolo[4′,3′:4,5]azacycloundecino[3,2,1-hi]indole-8-carboxylic acid-N-ethylethanamine Salt—Enantiomer 1], the IC50 with SUDHL5 [1] (setting [10]) came out at 320 nM; in the series with AMO-1 (72 hours), 1440 nM; in the series with HMC-1-8 (72 hours), 5250 nM. In the series on SUDHL5 [3] (setting [11]), the EC50 is 370 nM.

Turning to `Cc1c2c(nn1C)COCC(F)(F)CCn1c(C(=O)O)c(CCCOc3cccc4ccccc34)c3ccc(Cl)c-2c31` (single isomer, unassigned; enantiomer 1) [Example 56, 4-chloro-12,12-difluoro-2,3-dimethyl-7-{3-[(naphthalen-1-yl)oxy]propyl}-2,10,11,12,13,15-hexahydropyrazolo[4′,3′:9,10][1,6]oxazacycloundecino[8,7,6-hi]indole-8-carboxylic acid-N-ethylethanamine Salt—Enantiomer 1], the IC50 in the series with SUDHL5 [1] (setting [10]) turned out to be 590 nM; in the series with SUDHL5 [2] (72 hours), 1100 nM; in the series on AMO-1 (72 hours) it was 1770 nM; in the series with HMC-1-8 (72 h) it was 8270 nM; in the series on SUDHL10 [5] (setting [13]), 1600 nM. The results for the EC50 in the series on SUDHL5 [3] (setting [11]) and in the series on SUDHL10 [4] (setting [12]) were 690 nM and 1800 nM, respectively.

As for `Cc1c2c(nn1C)CN(CC(F)(F)F)CCCCn1c(C(=O)O)c(CCCOc3cccc4cc(F)ccc34)c3ccc(Cl)c-2c31` (single isomer, unassigned; enantiomer 1) [Example 59, 4-chloro-7-{3-[(6-fluoronaphthalen-1-yl)oxy]propyl}-2,3-dimethyl-14-(2,2,2-trifluoroethyl)-10,11,12,13,14,15-hexahydro-2H-pyrazolo[3′,4′:8,9][1,6]diazacycloundecino[10,11,1-hi]indole-8-carboxylic Acid—Enantiomer 1], the IC50 in the series with SUDHL5 [1] (setting [10]) was 310 nM; in the series with SUDHL5 [2] (72 hours), 340 nM; in the series with AMO-1 (72 hours), 216 nM; with HMC-1-8 (72 hours) it was 1120 nM; in the series on SUDHL10 [5] (setting [13]), 550 nM. The EC50 in the series on SUDHL5 [3] (setting [11]) came to 240 nM; in the series with SUDHL10 [4] (setting [12]) it was 490 nM.

In the case of `CCc1c2c(nn1C)N(CCC1CCOCC1)CCCCCn1c(C(=O)O)c(CCCOc3cccc4cc(F)ccc34)c3ccc(Cl)c-2c31` (single isomer, unassigned; enantiomer 1) [Example 81, 4-chloro-3-ethyl-7-{3-[(6-fluoronaphthalen-1-yl)oxy]propyl}-2-methyl-15-[2-(oxan-4-yl)ethyl]-10,11,12,13,14,15-hexahydro-2H-pyrazolo[4′,3′:4,5][1,6]diazacycloundecino[3,2,1-hi]indole-8-carboxylic acid N-ethylethanamine Salt—Enantiomer 1], the IC50 in the series with SUDHL5 [1] (setting [10]) worked out at 290 nM; with SUDHL5 [2] (72 hours), 320 nM; with AMO-1 (Homo sapiens, AMO1, 72 h), 120 nM; in the series on HMC-1-8 (72 h) it was 1900 nM; with SUDHL10 [5] (setting [13]), 230 nM. Also, the EC50 in the series on SUDHL5 [3] (setting [11]) came to 220 nM; in the series with SUDHL10 [4] (setting [12]), 170 nM.

Consider `CCc1nn(CCN2CCOCC2)c2c1-c1c(Cl)ccc3c(CCCOc4cccc5ccccc45)c(C(=O)O)n(c13)C/C=C\CN(C)C2` (single isomer, unassigned; enantiomer 2) [Example 44, (11Z)-4-chloro-3-ethyl-14-methyl-1-[2-(morpholin-4-yl)ethyl]-7-{3-[(naphthalen-1-yl)oxy]propyl}-10,13,14,15-tetrahydro-1H-pyrazolo[3′,4′:8,9][1,6]diazacycloundecino[10,11,1-hi]indole-8-carboxylic Acid-Ammonia Salt (Enantiomer 2)], for which the IC50 in the series on SUDHL5 [1] (setting [10]) turned out to be 8100 nM; in the series with MV-4-11, 11700 nM; in the series with SUDHL5 [2] (72 hours) it was 7200 nM; in the series with AMO-1 (72 hours), 15500 nM; in the series with SUDHL10 [5] (setting [13]), 15000 nM. Further, the EC50 in the series with SUDHL5 [3] (setting [11]) was found to be 9400 nM; in the series on SUDHL10 [4] (setting [12]), 13000 nM.

For the molecule `CCc1c2c(nn1C)CCCCCCn1c(C(=O)O)c(CCCOc3cccc4ccccc34)c3ccc(Cl)c-2c31` (single isomer, unassigned; enantiomer 2) [Example 53, (−) 4-chloro-3-ethyl-2-methyl-7-{3-[(naphthalen-1-yl)oxy]propyl}-10,11,12,13,14,15-hexahydro-2H-pyrazolo[4′,3′:4,5]azacycloundecino[3,2,1-hi]indole-8-carboxylic acid-N-ethylethanamine Salt—Enantiomer 2], the IC50 in the series with SUDHL5 [1] (setting [10]) is 2500 nM; in the series on AMO-1 (72 hours), 11200 nM; in the series with HMC-1-8 (72 hours), 16800 nM. In addition, in the series on SUDHL5 [3] (setting [11]), the EC50 was 3500 nM.
